From ChEMBL document CHEMBL4813954, “Dibenzodiazepinone-type muscarinic receptor antagonists conjugated to basic peptides: Impact of the linker moiety and unnatural amino acids on M2R selectivity” (Eur J Med Chem, 2021)

Experiments:
[1] = target: T1, Muscarinic acetylcholine receptor M1 (Homo sapiens, UniProt P11229); experiment: Displacement of [3H]-NMS from human muscarinic M1 receptor expressed in CHO cell membranes assessed as inhibition constant by radioligand competition analysis; set-up: species or system Cell membrane
T1 sequence (P11229 whole entry): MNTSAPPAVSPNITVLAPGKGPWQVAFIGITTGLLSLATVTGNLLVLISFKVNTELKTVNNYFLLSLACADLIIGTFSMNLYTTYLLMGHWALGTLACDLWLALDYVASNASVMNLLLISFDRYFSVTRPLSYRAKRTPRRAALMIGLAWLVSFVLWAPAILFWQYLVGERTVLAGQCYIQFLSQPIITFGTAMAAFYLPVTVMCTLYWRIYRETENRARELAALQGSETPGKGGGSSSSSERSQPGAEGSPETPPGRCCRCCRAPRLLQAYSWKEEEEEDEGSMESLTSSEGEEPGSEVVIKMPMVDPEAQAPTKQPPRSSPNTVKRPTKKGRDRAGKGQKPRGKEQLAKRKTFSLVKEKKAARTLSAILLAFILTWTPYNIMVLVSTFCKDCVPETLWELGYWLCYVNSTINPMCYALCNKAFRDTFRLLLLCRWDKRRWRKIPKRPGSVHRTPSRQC

[2] = target: T2, Muscarinic acetylcholine receptor M2 (Homo sapiens, UniProt P08172); experiment: Displacement of [3H]-NMS from human muscarinic M2 receptor expressed in CHO cell membranes assessed as inhibition constant by radioligand competition analysis; set-up: species or system Cell membrane
T2 sequence (P08172 whole entry): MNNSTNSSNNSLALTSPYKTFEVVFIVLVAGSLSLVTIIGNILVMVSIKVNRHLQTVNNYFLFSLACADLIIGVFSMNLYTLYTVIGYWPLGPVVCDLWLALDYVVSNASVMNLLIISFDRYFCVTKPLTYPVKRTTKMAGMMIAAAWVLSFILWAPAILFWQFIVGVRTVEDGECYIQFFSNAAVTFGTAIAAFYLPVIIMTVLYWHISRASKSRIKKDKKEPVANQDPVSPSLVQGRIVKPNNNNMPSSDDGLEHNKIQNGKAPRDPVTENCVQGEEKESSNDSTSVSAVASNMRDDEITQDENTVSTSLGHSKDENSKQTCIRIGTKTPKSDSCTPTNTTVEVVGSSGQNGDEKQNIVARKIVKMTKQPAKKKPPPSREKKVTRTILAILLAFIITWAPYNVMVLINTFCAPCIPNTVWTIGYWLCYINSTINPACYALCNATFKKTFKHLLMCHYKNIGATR

[3] = target: T3, Muscarinic acetylcholine receptor M4 (Homo sapiens, UniProt P08173); experiment: Displacement of [3H]-NMS from human muscarinic M4 receptor expressed in CHO cell membranes assessed as inhibition constant by radioligand competition analysis; set-up: species or system Cell membrane
T3 sequence (P08173 whole entry): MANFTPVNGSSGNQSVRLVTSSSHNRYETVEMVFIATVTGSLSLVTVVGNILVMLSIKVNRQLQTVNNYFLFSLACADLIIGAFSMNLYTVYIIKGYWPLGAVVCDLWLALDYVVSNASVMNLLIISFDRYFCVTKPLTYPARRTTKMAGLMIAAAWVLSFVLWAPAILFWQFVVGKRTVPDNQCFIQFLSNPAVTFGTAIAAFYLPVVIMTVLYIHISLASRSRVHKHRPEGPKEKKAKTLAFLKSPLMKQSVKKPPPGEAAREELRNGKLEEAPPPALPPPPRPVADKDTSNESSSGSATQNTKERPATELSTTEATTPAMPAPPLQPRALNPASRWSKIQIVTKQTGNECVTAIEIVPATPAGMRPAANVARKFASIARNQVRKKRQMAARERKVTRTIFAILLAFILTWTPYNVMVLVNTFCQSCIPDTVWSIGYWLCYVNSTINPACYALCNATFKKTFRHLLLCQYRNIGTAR

[4] = target: Muscarinic acetylcholine receptors; M2 & M3 (Homo sapiens) (UniProt P20309+P08172); experiment: Selectivity index, […] for displacement of [3H]NMS from human recombinant muscarinic receptor M3 expressed in CHO cell membranes […] for displacement of [3H]NMS from human recombinant muscarinic receptor M2 expressed in CHO cell membranes
[5] = target: Muscarinic acetylcholine receptor M3 (Homo sapiens, UniProt P20309); experiment: Displacement of [3H]-NMS from human muscarinic M3 receptor expressed in CHO cell membranes assessed as inhibition constant by radioligand competition analysis; set-up: species or system Cell membrane
Sequence of Muscarinic acetylcholine receptor M3 (P20309 whole entry): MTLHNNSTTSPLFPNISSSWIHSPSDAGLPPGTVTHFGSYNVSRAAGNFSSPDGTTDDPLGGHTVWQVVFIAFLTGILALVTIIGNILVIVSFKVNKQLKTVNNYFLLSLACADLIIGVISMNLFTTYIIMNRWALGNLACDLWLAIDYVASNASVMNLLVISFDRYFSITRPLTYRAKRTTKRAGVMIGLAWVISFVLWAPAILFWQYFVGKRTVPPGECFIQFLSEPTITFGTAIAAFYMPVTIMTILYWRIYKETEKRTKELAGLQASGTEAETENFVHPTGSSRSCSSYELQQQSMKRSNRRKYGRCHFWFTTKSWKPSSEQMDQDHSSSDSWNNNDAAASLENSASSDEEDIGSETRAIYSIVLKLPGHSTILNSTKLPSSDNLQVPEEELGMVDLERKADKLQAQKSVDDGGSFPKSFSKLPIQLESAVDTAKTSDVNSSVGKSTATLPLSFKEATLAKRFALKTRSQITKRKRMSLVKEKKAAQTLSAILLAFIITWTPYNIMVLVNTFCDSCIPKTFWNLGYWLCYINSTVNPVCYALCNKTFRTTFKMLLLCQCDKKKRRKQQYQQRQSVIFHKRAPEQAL

[6] = target: T4, Muscarinic acetylcholine receptor M5 (Homo sapiens, UniProt P08912); experiment: Displacement of [3H]-NMS from human muscarinic M5 receptor expressed in CHO cell membranes assessed as inhibition constant by radioligand competition analysis; set-up: species or system Cell membrane
T4 sequence (P08912 whole entry): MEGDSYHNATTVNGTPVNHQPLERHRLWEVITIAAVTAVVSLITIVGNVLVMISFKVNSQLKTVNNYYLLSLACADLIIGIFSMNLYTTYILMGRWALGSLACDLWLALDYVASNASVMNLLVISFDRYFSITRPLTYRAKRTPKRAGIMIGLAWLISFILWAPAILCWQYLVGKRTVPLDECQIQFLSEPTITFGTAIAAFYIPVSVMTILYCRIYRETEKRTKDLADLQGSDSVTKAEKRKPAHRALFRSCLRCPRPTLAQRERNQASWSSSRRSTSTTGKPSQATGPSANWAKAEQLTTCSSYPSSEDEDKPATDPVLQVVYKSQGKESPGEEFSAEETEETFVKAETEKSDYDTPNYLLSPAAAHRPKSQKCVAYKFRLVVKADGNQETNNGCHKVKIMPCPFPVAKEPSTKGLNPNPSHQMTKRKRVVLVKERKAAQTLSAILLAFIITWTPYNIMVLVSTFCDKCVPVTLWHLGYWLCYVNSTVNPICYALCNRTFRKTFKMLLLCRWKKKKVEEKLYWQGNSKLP

[7] = target: Muscarinic acetylcholine receptor M2 and M5 (Homo sapiens) (UniProt P08172+P08912); experiment: Selectivity index, […] for displacement of [3H]NMS from human recombinant muscarinic receptor M5 expressed in CHO cell membranes […] for displacement of [3H]NMS from human recombinant muscarinic receptor M2 expressed in CHO cell membranes

SMILES | Ki [1] | Ki [2] | Ki [3] | Selectivity Index [4] | Ki [5] | Ki [6] | Selectivity Index [7]
NCCN1CCN(C(=O)CCCC2CCN(CC(=O)N3c4ccccc4NC(=O)c4ccccc43)CC2)CC1 | 724 nM | 155 nM | 1510 nM | – | – | – | –
NCC(=O)NC1CCN(CC(=O)N2c3ccccc3NC(=O)c3ccccc32)CC1 | 2950 nM | 1150 nM | 1100 nM | – | – | – | –
Nc1ccccc1C(=O)N1CCC(N2CCC(Cc3ccc(S(=O)(=O)c4cccc(Cl)c4)cc3)CC2)CC1 | 324 nM | – | 91.2 nM | – | – | – | –
NCCN1CCN(CC(=O)NC2CCN(CC(=O)N3c4ccccc4NC(=O)c4ccccc43)CC2)CC1 | 47900 nM | 2450 nM | 25700 nM | – | – | – | –
CCCN[C@@H](CCNC(=N)N)C(=O)N[C@@H](CCCCN)C(=O)NC(C)=O | – | 4470 nM | – | – | – | – | –
CCCN[C@@H](CCCNC(=N)N)C(=O)N[C@@H](C)C(=O)N[C@@H](CCCCN)C(=O)NC(C)=O | – | 6170 nM | – | – | – | – | –
NCCN1CCN(CCCC2CCN(CC(=O)N3c4ccccc4NC(=O)c4ccccc43)CC2)CC1 | 44.7 nM | 3.55 nM | 18.6 nM | – | – | – | –
NCCN1CCN(CCC(=O)NC2CCN(CC(=O)N3c4ccccc4NC(=O)c4ccccc43)CC2)CC1 | 363 nM | 23.4 nM | 363 nM | – | – | – | –
CC(=O)N[C@@H](Cc1c[nH]c2ccccc12)C(=O)N[C@@H](C)C(=O)N[C@@H](Cc1ccc(O)cc1)C(=O)NCCCCC1CCN(CC(=O)N2c3ccccc3NC(=O)c3ccccc32)CC1 | 100 nM | – | 39.8 nM | 56 | 1260 nM | 126 nM | 6.2
CCCN[C@@H](CCCNC(=N)N)C(=O)N[C@@H](CCCCN)C(=O)NC(C)=O | – | 6460 nM | – | – | – | – | –
CCN(CC)CCCCC1CCN(CC(=O)N2c3ccccc3NC(=O)c3ccccc32)CC1 | – | – | – | 37 | – | – | –

Further compounds by falling Ki [2], results first:

Ki [1] | Ki [2] | Ki [3] | Selectivity Index [4] | Ki [5] | Ki [6] | Selectivity Index [7] | SMILES
39.8 nM | 1 nM | 63.1 nM | 6500 | 6310 nM | 316 nM | 400 | CC(=O)N[C@@H](CCCCN)C(=O)N[C@@H](CCCNC(=N)N)C(=O)NCCCCC1CCN(CC(=O)N2c3ccccc3NC(=O)c3ccccc32)CC1
7.94 nM | 0.794 nM | 2.51 nM | 79 | 63.1 nM | 158 nM | 230 | CCC(=O)NCCNC(=O)CCc1cn(CCCCC2CCN(CC(=O)N3c4ccccc4NC(=O)c4ccccc43)CC2)cn1
11.7 nM | 0.589 nM | 3.98 nM | > 160 | 251 nM | 676 nM | 1300 | N=C(N)NCCC[C@@H](N)C(=O)NCCN1CCN(CCCC2CCN(CC(=O)N3c4ccccc4NC(=O)c4ccccc43)CC2)CC1
0.692 nM | 0.229 nM | 1.82 nM | – | – | – | – | N=C(N)NCCC[C@@H](N)C(=O)NCCN1CCN(CCCCC2CCN(CC(=O)N3c4ccccc4NC(=O)c4ccccc43)CC2)CC1
2.57 nM | 0.186 nM | 2.51 nM | – | – | – | – | NC1CCN(CCCCC2CCN(CC(=O)N3c4ccccc4NC(=O)c4ccccc43)CC2)CC1
1.35 nM | 0.102 nM | 0.794 nM | – | – | – | – | N=C(N)NCCC[C@H](N)C(=O)NCCN1CCN(CCCCC2CCN(CC(=O)N3c4ccccc4NC(=O)c4ccccc43)CC2)CC1
2.51 nM | 0.1 nM | 2 nM | 1800 | 100 nM | 398 nM | 4900 | CC(=O)N[C@@H](CCCCN)C(=O)N[C@@H](C)C(=O)N[C@@H](CCCNC(=N)N)C(=O)NCCN1CCN(CCCCC2CCN(CC(=O)N3c4ccccc4NC(=O)c4ccccc43)CC2)CC1
